Data taken from patent publication US20230085307A1, “PYRIDAZINONE COMPOUND AND HERBICIDE” (NISSAN CHEMICAL CORPORATION, priority 2019, published 2023).

Test system: windgrass
Assay: Test Example 4: herbicidal effect by soil treatment (Table 19, symbol L)
Assay type: in vivo, windgrass (Apera spica-venti)
Settings: amount of applied herbicide 320 g/ha
Procedure, shortened: (§1)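 Pre-emergence style soil spray: seeds under ~1.5 cm sterilized diluvial soil received a uniform coat of emulsion diluted to the predetermined herbicide amount. Greenhouse 25–30° C; readout at week three on previously defined criteria.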

SMILES | L: windgrass, herbicidal effect rating
Cc1nn(C)c(=O)c(-c2c(-c3ccccc3)sc3ccc(F)cc23)c1O [2-197] | 1 (Herbicidal rate of 5% or more and less than 20%)
CCCC(=O)Oc1c(C)nn(C)c(=O)c1-c1c(-c2ccccc2)sc2ccc(F)cc12 [2-198] | 3 (Herbicidal rate of 40% or more and less than 70%)

Test system: windgrass
Assay: Test Example 5: herbicidal effect by foliage application, plastic box (Table 20, symbol L)
Assay type: in vivo, windgrass (Apera spica-venti)
Settings: foliage application, 320 g/ha, evaluated three weeks after application
Procedure, shortened: (§2)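 Plants were sown into sterilized diluvial soil under about 1.5 cm cover and kept in a greenhouse at 25° C. to 30° C. Fourteen days on, foliage received an even spray of the diluted emulsion. Herbicidal or crop effect was judged three weeks afterwards.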

SMILES | herbicidal effect on L: windgrass (criteria 0-5)
Cc1nn(C)c(=O)c(-c2c(-c3ccccc3)sc3ccc(F)cc23)c1O [2-197] | 4 (Herbicidal rate of 70% or more and less than 90%)
CCCC(=O)Oc1c(C)nn(C)c(=O)c1-c1c(-c2ccccc2)sc2ccc(F)cc12 [2-198] | 4 (Herbicidal rate of 70% or more and less than 90%)

Test system: Italian ryegrass
Assay: Test Example 4: herbicidal effect by soil treatment (Table 19, symbol K)
Assay type: in vivo, Italian ryegrass (Lolium multiflorum)
Settings: amount of applied herbicide 320 g/ha
Procedure, shortened: as §1

SMILES | K: Italian ryegrass, herbicidal effect rating
Cc1nn(C)c(=O)c(-c2c(-c3ccccc3)sc3ccc(F)cc23)c1O [2-197] | 4 (Herbicidal rate of 70% or more and less than 90%)
CCCC(=O)Oc1c(C)nn(C)c(=O)c1-c1c(-c2ccccc2)sc2ccc(F)cc12 [2-198] | 4 (Herbicidal rate of 70% or more and less than 90%)

Test system: Japanese bulrush
Assay: Test Example 1: herbicidal activity, application before weed generation under submerged conditions (Table 16, symbol B)
Assay type: in vivo, Japanese bulrush (Schoenoplectus juncoides)
Settings: 320 g/ha applied herbicide
Procedure, shortened: (§3)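 Emulsion formulation, water-diluted to set dose, was put onto the flooded surface (4 cm depth, alluvial soil) the same day weeds were sown and 2.5-leaf rice transplanted. After 3 weeks at 25-30 °C under glass, each species was rated 0 (≤5% kill) to 5 (≥90% kill).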

SMILES | Herbicidal effect on B: Japanese bulrush (grade 0-5)
Cc1nn(C)c(=O)c(-c2c(-c3ccccc3)sc3ccc(F)cc23)c1O [2-197] | 3 (Herbicidal rate of 40% or more and less than 70%)
CCCC(=O)Oc1c(C)nn(C)c(=O)c1-c1c(-c2ccccc2)sc2ccc(F)cc12 [2-198] | 3 (Herbicidal rate of 40% or more and less than 70%)

Test system: barnyard grass
Assay: Test Example 5: herbicidal effect by foliage application, plastic box (Table 20, symbol H)
Assay type: in vivo, barnyard grass (Echinochloa crus-galli)
Settings: foliage application, 320 g/ha, evaluated three weeks after application
Procedure, shortened: as §2

SMILES | herbicidal effect on H: barnyard grass (criteria 0-5)
Cc1nn(C)c(=O)c(-c2c(-c3ccccc3)sc3ccc(F)cc23)c1O [2-197] | 5 (Herbicidal rate of 90% or more (almost completely withered))
CCCC(=O)Oc1c(C)nn(C)c(=O)c1-c1c(-c2ccccc2)sc2ccc(F)cc12 [2-198] | 3 (Herbicidal rate of 40% or more and less than 70%)

Test system: southern crabgrass
Assay: Test Example 5: herbicidal effect by foliage application, plastic box (Table 20, symbol F)
Assay type: in vivo, southern crabgrass (Digitaria ciliaris)
Settings: foliage application, 320 g/ha, evaluated three weeks after application
Procedure, shortened: as §2

SMILES | herbicidal effect on F: southern crabgrass (criteria 0-5)
Cc1nn(C)c(=O)c(-c2c(-c3ccccc3)sc3ccc(F)cc23)c1O [2-197] | 5 (Herbicidal rate of 90% or more (almost completely withered))
CCCC(=O)Oc1c(C)nn(C)c(=O)c1-c1c(-c2ccccc2)sc2ccc(F)cc12 [2-198] | 5 (Herbicidal rate of 90% or more (almost completely withered))

Test system: oval-leafed pondweed
Assay: Test Example 1: herbicidal activity, application before weed generation under submerged conditions (Table 16, symbol C)
Assay type: in vivo, oval-leafed pondweed (Monochoria vaginalis)
Settings: 320 g/ha applied herbicide
Procedure, shortened: as §3

SMILES | Herbicidal effect on C: oval-leafed pondweed (grade 0-5)
Cc1nn(C)c(=O)c(-c2c(-c3ccccc3)sc3ccc(F)cc23)c1O [2-197] | 3 (Herbicidal rate of 40% or more and less than 70%)
CCCC(=O)Oc1c(C)nn(C)c(=O)c1-c1c(-c2ccccc2)sc2ccc(F)cc12 [2-198] | 3 (Herbicidal rate of 40% or more and less than 70%)

Test system: velvetleaf
Assay: Test Example 5: herbicidal effect by foliage application, plastic box (Table 20, symbol M)
Assay type: in vivo, velvetleaf (Abutilon theophrasti)
Settings: foliage application, 320 g/ha, evaluated three weeks after application
Procedure, shortened: as §2

SMILES | herbicidal effect on M: velvetleaf (criteria 0-5)
Cc1nn(C)c(=O)c(-c2c(-c3ccccc3)sc3ccc(F)cc23)c1O [2-197] | 5 (Herbicidal rate of 90% or more (almost completely withered))
CCCC(=O)Oc1c(C)nn(C)c(=O)c1-c1c(-c2ccccc2)sc2ccc(F)cc12 [2-198] | 5 (Herbicidal rate of 90% or more (almost completely withered))

Test system: blackgrass
Assay: Test Example 5: herbicidal effect by foliage application, plastic box (Table 20, symbol J)
Assay type: in vivo, blackgrass (Alopecurus myosuroides)
Settings: foliage application, 320 g/ha, evaluated three weeks after application
Procedure, shortened: as §2

SMILES | herbicidal effect on J: blackgrass (criteria 0-5)
Cc1nn(C)c(=O)c(-c2c(-c3ccccc3)sc3ccc(F)cc23)c1O [2-197] | 4 (Herbicidal rate of 70% or more and less than 90%)
CCCC(=O)Oc1c(C)nn(C)c(=O)c1-c1c(-c2ccccc2)sc2ccc(F)cc12 [2-198] | 4 (Herbicidal rate of 70% or more and less than 90%)

Test system: chickweed
Assay: Test Example 4: herbicidal effect by soil treatment (Table 19, symbol P)
Assay type: in vivo, common chickweed (Stellaria media)
Settings: amount of applied herbicide 320 g/ha
Procedure, shortened: as §1

SMILES | P: chickweed, herbicidal effect rating
Cc1nn(C)c(=O)c(-c2c(-c3ccccc3)sc3ccc(F)cc23)c1O [2-197] | 3 (Herbicidal rate of 40% or more and less than 70%)
CCCC(=O)Oc1c(C)nn(C)c(=O)c1-c1c(-c2ccccc2)sc2ccc(F)cc12 [2-198] | 4 (Herbicidal rate of 70% or more and less than 90%)

Test system: rice flat sedge
Assay: Test Example 3: herbicidal effect by foliage application, Wagner pot (Table 18, symbol E)
Assay type: in vivo, rice flat sedge (Cyperus iria)
Settings: amount of applied herbicide 320 g/ha
Procedure, shortened: (§4)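 Plants were sown in alluvial soil held under 0.1–0.5 cm standing water and grown 14 days in a greenhouse at 25–30 °C. An emulsifiable formulation, water-diluted to the set dose, was then sprayed onto the foliage, and effects were scored three weeks later using previously defined criteria.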

SMILES | herbicidal effect on E: rice flat sedge
Cc1nn(C)c(=O)c(-c2c(-c3ccccc3)sc3ccc(F)cc23)c1O [2-197] | 5 (Herbicidal rate of 90% or more (almost completely withered))
CCCC(=O)Oc1c(C)nn(C)c(=O)c1-c1c(-c2ccccc2)sc2ccc(F)cc12 [2-198] | 5 (Herbicidal rate of 90% or more (almost completely withered))

Test system: persian speedwell
Assay: Test Example 4: herbicidal effect by soil treatment (Table 19, symbol R)
Assay type: in vivo, Persian speedwell (Veronica persica)
Settings: amount of applied herbicide 320 g/ha
Procedure, shortened: as §1

SMILES | R: persian speedwell, herbicidal effect rating
Cc1nn(C)c(=O)c(-c2c(-c3ccccc3)sc3ccc(F)cc23)c1O [2-197] | 3 (Herbicidal rate of 40% or more and less than 70%)
CCCC(=O)Oc1c(C)nn(C)c(=O)c1-c1c(-c2ccccc2)sc2ccc(F)cc12 [2-198] | 4 (Herbicidal rate of 70% or more and less than 90%)

Test system: Chinese sprangletop
Assay: Test Example 3: herbicidal effect by foliage application, Wagner pot (Table 18, symbol D)
Assay type: in vivo, chinese sprangletop (Leptochloa chinensis)
Settings: amount of applied herbicide 320 g/ha
Procedure, shortened: as §4

SMILES | herbicidal effect on D: Chinese sprangletop
Cc1nn(C)c(=O)c(-c2c(-c3ccccc3)sc3ccc(F)cc23)c1O [2-197] | 5 (Herbicidal rate of 90% or more (almost completely withered))
CCCC(=O)Oc1c(C)nn(C)c(=O)c1-c1c(-c2ccccc2)sc2ccc(F)cc12 [2-198] | 5 (Herbicidal rate of 90% or more (almost completely withered))

Test system: chickweed
Assay: Test Example 5: herbicidal effect by foliage application, plastic box (Table 20, symbol P)
Assay type: in vivo, common chickweed (Stellaria media)
Settings: foliage application, 320 g/ha, evaluated three weeks after application
Procedure, shortened: as §2

SMILES | herbicidal effect on P: chickweed (criteria 0-5)
Cc1nn(C)c(=O)c(-c2c(-c3ccccc3)sc3ccc(F)cc23)c1O [2-197] | 5 (Herbicidal rate of 90% or more (almost completely withered))
CCCC(=O)Oc1c(C)nn(C)c(=O)c1-c1c(-c2ccccc2)sc2ccc(F)cc12 [2-198] | 5 (Herbicidal rate of 90% or more (almost completely withered))

Test system: barnyard grass
Assay: Test Example 3: herbicidal effect by foliage application, Wagner pot (Table 18, symbol H)
Assay type: in vivo, barnyard grass (Echinochloa crus-galli)
Settings: amount of applied herbicide 320 g/ha
Procedure, shortened: as §4

SMILES | herbicidal effect on H: barnyard grass
Cc1nn(C)c(=O)c(-c2c(-c3ccccc3)sc3ccc(F)cc23)c1O [2-197] | 5 (Herbicidal rate of 90% or more (almost completely withered))
CCCC(=O)Oc1c(C)nn(C)c(=O)c1-c1c(-c2ccccc2)sc2ccc(F)cc12 [2-198] | 5 (Herbicidal rate of 90% or more (almost completely withered))

Test system: redroot pigweed
Assay: Test Example 5: herbicidal effect by foliage application, plastic box (Table 20, symbol N)
Assay type: in vivo, redroot pigweed (Amaranthus retroflexus)
Settings: foliage application, 320 g/ha, evaluated three weeks after application
Procedure, shortened: as §2

SMILES | herbicidal effect on N: redroot pigweed (criteria 0-5)
Cc1nn(C)c(=O)c(-c2c(-c3ccccc3)sc3ccc(F)cc23)c1O [2-197] | 5 (Herbicidal rate of 90% or more (almost completely withered))
CCCC(=O)Oc1c(C)nn(C)c(=O)c1-c1c(-c2ccccc2)sc2ccc(F)cc12 [2-198] | 5 (Herbicidal rate of 90% or more (almost completely withered))

Test system: late watergrass
Assay: Test Example 1: herbicidal activity, application before weed generation under submerged conditions (Table 16, symbol A)
Assay type: in vivo, late watergrass (Echinochloa oryzicola)
Settings: 320 g/ha applied herbicide
Procedure, shortened: as §3

SMILES | Herbicidal effect on A: late watergrass (grade 0-5)
Cc1nn(C)c(=O)c(-c2c(-c3ccccc3)sc3ccc(F)cc23)c1O [2-197] | 3 (Herbicidal rate of 40% or more and less than 70%)
CCCC(=O)Oc1c(C)nn(C)c(=O)c1-c1c(-c2ccccc2)sc2ccc(F)cc12 [2-198] | 5 (Herbicidal rate of 90% or more (almost completely withered))

Test system: lambsquarters
Assay: Test Example 4: herbicidal effect by soil treatment (Table 19, symbol O)
Assay type: in vivo, lambsquarters (Chenopodium album)
Settings: amount of applied herbicide 320 g/ha
Procedure, shortened: as §1

SMILES | O: lambsquarters, herbicidal effect rating
Cc1nn(C)c(=O)c(-c2c(-c3ccccc3)sc3ccc(F)cc23)c1O [2-197] | 5 (Herbicidal rate of 90% or more (almost completely withered))
CCCC(=O)Oc1c(C)nn(C)c(=O)c1-c1c(-c2ccccc2)sc2ccc(F)cc12 [2-198] | 4 (Herbicidal rate of 70% or more and less than 90%)

Test system: wild oat
Assay: Test Example 5: herbicidal effect by foliage application, plastic box (Table 20, symbol I)
Assay type: in vivo, wild oat (Avena fatua)
Settings: foliage application, 320 g/ha, evaluated three weeks after application
Procedure, shortened: as §2

SMILES | herbicidal effect on I: wild oat (criteria 0-5)
Cc1nn(C)c(=O)c(-c2c(-c3ccccc3)sc3ccc(F)cc23)c1O [2-197] | 4 (Herbicidal rate of 70% or more and less than 90%)
CCCC(=O)Oc1c(C)nn(C)c(=O)c1-c1c(-c2ccccc2)sc2ccc(F)cc12 [2-198] | 4 (Herbicidal rate of 70% or more and less than 90%)
